This is an account of results in patent US20030157205A1, “Inhibitory and preventative effects of processed morinda citrifolia on mutagenesis and carcinogenesis in mammals” (priority 2001, published 2003).

The subject of this assay is mammary gland carcinogenesis induced by 17 β-estradiol (E2). Kind of assay: Estrogen (E2 pellet)-induced mammary carcinogenesis in female ACI rats. The class given is in vivo. To be noted: for survival rate: control 100%, placebo 0%. The source says:
This study indicates the preventative effects of Methyl Sulfonyl Methane (MSM), processed Morinda citrifolia products (e.g., Tahitian Noni juice), and their combination on estrogen-induced mammary carcinogenesis in female ACI rats.
In the study, the preventative effects of MSM, Morinda citrifolia, and their combination on mammary gland carcinogenesis induced by 17 β-estradiol (estrogen)(E2) pellet implants in female ACI rats was studied. In the experiment, sixty (60), five week old female rats were divided into four groups, fifteen (15) rats each, and placed on regular diets. Another eight (8) female ACI rats were served as the age-matched controls. Five percent placebo, five percent Morinda citrifolia, five percent MSM, a combination of five percent Morinda citrifolia and MSM in drinking water was supplied to the animals in different groups until ninety days after E2 implantation. Two weeks later, all animals were implanted subcutaneously with a 25 mg pellet containing 22.5 mg of 17 β-estradiol (e2) mixed with 2.5 mg cholesterol, and the age-matched control animals received a 25 mg cholesterol pellet implant.

For the molecule `CS(C)(=O)=O` [MSM, Methyl Sulfonyl Methane], where the note is “5% in drinking water, E2-implanted female ACI rats, placebo group had significant loss vs cholesterol control”, the body weight loss result is given as “slight body weight loss”. Further, the “percent of the rats with mammary tumors” value (5% in drinking water, E2 implant, placebo group one hundred percent) is reported as “fifty-seven”. For the setting “5% in drinking water, E2 implant, placebo group three to seven”, the “number of tumors per rat” value is on record as “one to four”. Further, the survival rate by setting is: (160 days after E2 implantation) 73%; (180 days after E2 implantation) 20%; (200 days after E2 implantation) 0%. Further, where the note is “180 days after E2 implantation, placebo 17”, the average tumor area amounted to 12 mm2.
